Test results: patent publication EP2377861B1, “Water-soluble bis-triazinyl-pyridines, bipyridines and terpyridines, synthesis and use of same” (Karlsruher Institut für Technologie, priority 2010, dated 2011)

Tests used:
[1] = Extraction with TODGA from HNO3, complexing agent in aqueous phase, distribution ratio by gamma spectrometry; settings: for DEu(III) / DAm(III): 0.2 mol/L TODGA + 5 % vol. 1-Octanol in Kerosin; for SFEu(III)/Am(III): separation factor DEu(III)/DAm(III)
Excerpt: (§1) D2EHPA bestimmt. Aus allen Versuchen wurden die Verteilungsverhältnisse (Verhältnis der organischen zur wässrigen Konzentration) von Am(III) und Eu(III) mittels Gamma-Spektrometrie bestimmt. Die Berechnung der Verteilungsverhältnisse DM ergibt sich aus den Zählraten des Gammazählers, welcher die radioaktiven ^241Am (III) - und ^152Eu(III) - Isotope in volumengleichen Proben der wässrigen bzw. der organischen Phase erfasst gem. der Gleichung DM=[M]org/[M]aq, wobei die Konzentration des Metalls M aus [M]=Zählrate/Volumen berechnet wird.
Es wurden […] und ^152Eu(III) (je ca. 1 kBq/mL) aus 0.09 / 0.18 / 0.44 / 0.88 / 1.8 mol/L HNO3 in eine organische Phase bestehend aus (0.2 mol/L TODGA + 5 % vol. 1-Octanol in Kerosin) extrahiert.
Es wurden ^241Am(III) und ^152Eu(III) (je ca. 1 kBq/mL) aus 0.5 mol/L HNO3 in eine organische Phase bestehend aus (0.2 mol/L TODGA + 5 % vol. 1-Octanol in Kerosin) extrahiert. Die wässrige Phase enthielt entweder 0 mmol/L oder 10 mmol/L SO3-Ph-BTBP.

[2] = Extraction with D2EHPA from HNO3, complexing agent in aqueous phase, distribution ratio by gamma spectrometry; settings: for DAm(III) / DEu(III): 10 mmol/L SO3-Ph-BTP in aqueous phase, 0.1 mol/L D2EHPA in Kerosin; for SFEu(III)/Am(III): separation factor DEu(III)/DAm(III), D2EHPA
Excerpt: as §1
Es wurden ^241Am(III) und ^152Eu(III) (je ca. 1 kBq/mL) aus 0.045 / 0.09 / 0.18 / 0.44 mol/L HNO3 in eine organische Phase bestehend aus (0.1 mol/L D2EHPA in Kerosin) extrahiert.

[3] = Back-extraction from loaded TODGA organic phase (simulated PUREX raffinate) into aqueous complexing agent solution; settings: after back-extraction into 10 mmol/L SO3-Ph-BTP in water
Excerpt: as §1
Einem inaktiven Simulat eines PUREX-Raffinats wurden ^241Am(III) und ^I52Eu(III) (je ca. 1 kBq/mL) zugegeben. Es wurde in eine organische Phase bestehend aus (0.2 mol/L TODGA + 5 % vol. 1-Octanol in Kerosin) extrahiert.

Solubility in water = assay type: physicochemical
[4] = loaded 0.2 mol/L TODGA + 5 % vol. 1-Octanol in Kerosin
[5] = 10 mmol/L SO3-Ph-BTBP in aqueous phase, 0.5 mol/L HNO3

2,6-Bis(5,6-di(sulfophenyl)-1,2,4-triazin-3-yl)pyridine [SO3-Ph-BTP]
DEu(III) ([1]; 10 mmol/L SO3-Ph-BTP in aqueous phase, 0,09 mol/L HNO3): 1.2 | DEu(III) ([1]; 10 mmol/L SO3-Ph-BTP in aqueous phase, 0,18 mol/L HNO3): 11.9 | DEu(III) ([1]; 10 mmol/L SO3-Ph-BTP in aqueous phase, 0,44 mol/L HNO3): 180 | DEu(III) ([1]; 10 mmol/L SO3-Ph-BTP in aqueous phase, 0,88 mol/L HNO3): > 10^3 | DEu(III) ([1]; 10 mmol/L SO3-Ph-BTP in aqueous phase, 1,8 mol/L HNO3): > 10^3 | Trennfaktor SFEu(III)/Am(III) ([1]; 10 mmol/L SO3-Ph-BTP, ca. 0.1-0.5 mol/L HNO3, TODGA): 500-1000 | DAm(III) ([1]; 10 mmol/L complexing agent in aqueous phase, 0,09 mol/L HNO3): 1.1·10^-3 | DAm(III) ([1]; 10 mmol/L complexing agent in aqueous phase, 0,18 mol/L HNO3): 0.014 | DAm(III) ([1]; 10 mmol/L complexing agent in aqueous phase, 0,44 mol/L HNO3): 0.35 | DAm(III) ([1]; 10 mmol/L complexing agent in aqueous phase, 0,88 mol/L HNO3): 4.5 | DAm(III) ([1]; 10 mmol/L complexing agent in aqueous phase, 1,8 mol/L HNO3): 90 | SFEu(III)/Am(III) ([1]; 10 mmol/L complexing agent, 0,09 mol/L HNO3, TODGA): 1100 | SFEu(III)/Am(III) ([1]; 10 mmol/L complexing agent, 0,18 mol/L HNO3, TODGA): 850 | SFEu(III)/Am(III) ([1]; 10 mmol/L complexing agent, 0,44 mol/L HNO3, TODGA): 510 | SFEu(III)/Am(III) ([1]; 10 mmol/L complexing agent, 0,88 mol/L HNO3, TODGA): > 220 | SFEu(III)/Am(III) ([1]; 10 mmol/L complexing agent, 1,8 mol/L HNO3, TODGA): > 11 | DAm(III) ([2]; 0.045 mol/L HNO3): 1.10^-3 | DEu(III) ([2]; 0.045 mol/L HNO3): 5.3 | DAm(III) ([2]; 0.09 mol/L HNO3): 4.10^-4 | DEu(III) ([2]; 0.09 mol/L HNO3): 1.4 | DAm(III) ([2]; 0.18 mol/L HNO3): 5.10^-5 | DEu(III) ([2]; 0.18 mol/L HNO3): 0.37 | DAm(III) ([2]; 0.44 mol/L HNO3): < d.l. | DEu(III) ([2]; 0.44 mol/L HNO3): 0.06 | Trennfaktor SFEu(III)/Am(III) ([2]; 10 mmol/L SO3-Ph-BTP, D2EHPA in Kerosin): > 3000 | SFEu(III)/Am(III) ([2]; 10 mmol/L SO3-Ph-BTP, 0.045 mol/L HNO3): 5200 | SFEu(III)/Am(III) ([2]; 10 mmol/L SO3-Ph-BTP, 0.09 mol/L HNO3): 3400 | SFEu(III)/Am(III) ([2]; 10 mmol/L SO3-Ph-BTP, 0.18 mol/L HNO3): 7000 | DAm(III) [3, 4]: 0.059 | DEu(III) [3, 4]: 49 | Trennfaktor SFEu(III)/Am(III) ([3]; loaded TODGA phase): 830

6,6'-Bis(5, 6-di(sulfophenyl)-1, 2, 4-triazin-3-yl)-2,2'-bipyridine [SO3-Ph-BTBP]
Löslichkeit in Wasser (Solubility in water): > 0.1 mol/L | DAm(III) [1, 5]: 0.33 | DEu(III) [1, 5]: 150 | SFEu(III)/Am(III) ([1]; 10 mmol/L SO3-Ph-BTBP, 0.5 mol/L HNO3, TODGA): 450
